Earlier results, collected in patent US20240279190A1, “COMPOUNDS FOR MODULATING PLATELET-TYPE 12-(S)-LIPOXYGENASE AND METHODS OF USE FOR SAME” (The Regents of The University of California, priority 2021, published 2024).

Tested on: human islets
Conditions: 10 μM; different batches of human islets; cited from earlier work

## ML355
  GSIS effect in a similar experiment: comparable results were observed
